{"source": "patent US20130245081A1", "about": "“Compositions and Methods for Treating Amyotrophic Lateral Sclerosis” (priority 2009, published 2013)", "system": "patients with ALS", "key": {"[1]": {"settings": "300 mg, through the end of the study"}}, "note": "Values joined by “and” are separate entries in the source; they are usually repeats but may differ in a detail not shown here. Equal values may be shown once. Read-outs that look alike come from different tables or passages of the source. Marks after values point to notes of the source that are not given here.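 Further: adverse event data gathered at every clinic visit and phone contact, after first study drug dose, in a blinded trial, counts of affected subjects.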", "data": [{"smiles": "CCCN[C@@H]1CCc2nc(N)sc2C1", "note": "[dexpramipexole, (6R)-2-amino-4,5,6,7-tetrahydro-6-(propylamino)benzothiazole]", "values": [{"measurement": "TEAE: Cough", "setting": "300 mg, through Week 28", "value": "5 (11%) N (%)"}, {"measurement": "TEAE: Dehydration", "setting": "300 mg, through Week 28", "value": "3 (7%) N (%)"}, {"measurement": "TEAE: Depression", "setting": "300 mg, through Week 28", "value": "5 (11%) N (%)"}, {"measurement": "TEAE: Dizziness", "setting": "300 mg, through Week 28", "value": "3 (7%) N (%)"}, {"measurement": "TEAE: Dysarthria", "setting": "300 mg, through Week 28", "value": "5 (11%) N (%)"}, {"measurement": "TEAE: Dysphagia", "setting": "300 mg, through Week 28", "value": "4 (9%) N (%)"}, {"measurement": "TEAE: Dyspnoea", "setting": "300 mg, through Week 28", "value": "6 (14%) N (%)"}, {"measurement": "TEAE: Fall", "setting": "300 mg, through Week 28", "value": "11 (25%) N (%)"}, {"measurement": "TEAE: Fatigue", "setting": "300 mg, through Week 28", "value": "2 (5%)^a N (%) and 2 (5%) N (%)"}, {"measurement": "TEAE: Gastrointestinal Disorders", "setting": "300 mg, through Week 28", "value": "25 (57%) N (%)"}, {"measurement": "TEAE: General Disorders and Administration Site Conditions", "setting": "300 mg, through Week 28", "value": "12 (27%) N (%)"}, {"measurement": "TEAE: Headache", "setting": "300 mg, through Week 28", "value": "6 (14%) N (%)"}, {"measurement": "TEAE: Hyperglycaemia", "setting": "300 mg, through Week 28", "value": "3 (7%) N (%)"}, {"measurement": "TEAE: Infections and Infestations", "setting": "300 mg, through Week 28", "value": "17 (39%) N (%)"}, {"measurement": "TEAE: Injury, Poisoning and Procedural Complication", "setting": "300 mg, through Week 28", "value": "12 (27%) N (%)"}, {"measurement": "TEAE: Metabolism and Nutrition Disorders", "setting": "300 mg, through Week 28", "value": "8 (18%) N (%)"}, {"measurement": "TEAE: Muscle contractions involuntary", "setting": "300 mg, through Week 28", "value": "2 (5%)^a N (%) and 2 (5%) N (%)"}, {"measurement": "TEAE: Muscle spasticity", "setting": "300 mg, through Week 28", "value": "1 (2%) N (%)"}, {"measurement": "TEAE: Musculoskeletal and Connective Tissue Disorders", "setting": "300 mg, through Week 28", "value": "19 (43%) N (%)"}, {"measurement": "TEAE: Musculoskeletal pain", "setting": "300 mg, through Week 28", "value": "3 (7%) N (%)"}, {"measurement": "TEAE: Nausea", "setting": "300 mg, through Week 28", "value": "3 (7%) N (%)"}, {"measurement": "TEAE: Neck pain", "setting": "300 mg, through Week 28", "value": "4 (9%) N (%)"}, {"measurement": "TEAE: Nervous System Disorders", "setting": "300 mg, through Week 28", "value": "18 (41%) N (%)"}, {"measurement": "TEAE: Oedema peripheral", "setting": "300 mg, through Week 28", "value": "2 N (%) and 1 (2%) N (%)"}, {"measurement": "TEAE: Pharyngolaryngeal pain", "setting": "300 mg, through Week 28", "value": "3 (7%) N (%)"}, {"measurement": "TEAE: Pneumonia", "setting": "300 mg, through Week 28", "value": "1 (2%) N (%)"}, {"measurement": "TEAE: Pruritus", "setting": "300 mg, through Week 28", "value": "0 N (%)"}, {"measurement": "TEAE: Psychiatric Disorders", "setting": "300 mg, through Week 28", "value": "14 (32%) N (%)"}, {"measurement": "TEAE: Rash", "setting": "300 mg, through Week 28", "value": "3 (7%) N (%)"}, {"measurement": "TEAE: Respiratory failure", "setting": "300 mg, through Week 28", "value": "1 (2%) N (%)"}, {"measurement": "TEAE: Respiratory, Thoracic and Mediastinal Disorders", "setting": "300 mg, through Week 28", "value": "18 (41%) N (%)"}, {"measurement": "TEAE: Salivary hypersecretion", "setting": "300 mg, through Week 28", "value": "5 (11%) N (%)"}, {"measurement": "TEAE: Sinusitis", "setting": "300 mg, through Week 28", "value": "5 (11%) N (%)"}, {"measurement": "TEAE: Skin and Subcutaneous Tissue Disorders", "setting": "300 mg, through Week 28", "value": "8 (18%) N (%)"}, {"measurement": "TEAE: Tachycardia", "setting": "300 mg, through Week 28", "value": "4 (9%) N (%)"}, {"measurement": "TEAE: Upper respiratory tract infection", "setting": "300 mg, through Week 28", "value": "3 (7%) N (%)"}, {"measurement": "TEAE: Urinary tract infection", "setting": "300 mg, through Week 28", "value": "4 (9%) N (%)"}, {"measurement": "TEAE: Vomiting", "setting": "300 mg, through Week 28", "value": "0 N (%)"}, {"measurement": "serious TEAE: Acute myocardial infarction", "setting": "300 mg, through Week 28", "value": "0 N (%)"}, {"measurement": "serious TEAE: Atrial fibrillation", "setting": "300 mg, through Week 28", "value": "1 (2%) N (%)"}, {"measurement": "serious TEAE: Blood and Lymphatic System Disorders", "setting": "300 mg, through Week 28", "value": "1 (2%) N (%)"}, {"measurement": "serious TEAE: Cardiac Disorders", "setting": "300 mg, through Week 28", "value": "1 (2%) N (%)"}, {"measurement": "serious TEAE: Cardiac failure congestive", "setting": "300 mg, through Week 28", "value": "0 N (%)"}, {"measurement": "serious TEAE: Cholecystitis acute", "setting": "300 mg, through Week 28", "value": "1 (2%) N (%)"}, {"measurement": "serious TEAE: Concussion", "setting": "300 mg, through Week 28", "value": "1 (2%) N (%)"}, {"measurement": "serious TEAE: Disease progression", "setting": "300 mg, through Week 28", "value": "0 N (%)"}, {"measurement": "serious TEAE: Dyspnoea", "setting": "300 mg, through Week 28", "value": "0 N (%)"}, {"measurement": "serious TEAE: Fall", "setting": "300 mg, through Week 28", "value": "1 (2%) N (%)"}, {"measurement": "serious TEAE: Gastrointestinal Disorders", "setting": "300 mg, through Week 28", "value": "0 N (%)"}, {"measurement": "serious TEAE: General Disorders and Administration Site Conditions", "setting": "300 mg, through Week 28", "value": "0 N (%)"}, {"measurement": "serious TEAE: Hepatobiliary Disorders", "setting": "300 mg, through Week 28", "value": "1 (2%) N (%)"}, {"measurement": "serious TEAE: Ileus", "setting": "300 mg, through Week 28", "value": "0 N (%)"}, {"measurement": "serious TEAE: Infections and Infestations", "setting": "300 mg, through Week 28", "value": "1 (2%) N (%)"}, {"measurement": "serious TEAE: Injury, Poisoning and Procedural Complications", "setting": "300 mg, through Week 28", "value": "1 (2%) N (%)"}, {"measurement": "serious TEAE: Neutropenia", "setting": "300 mg, through Week 28", "value": "1 (2%) N (%)"}, {"measurement": "serious TEAE: Pneumonia", "setting": "300 mg, through Week 28", "value": "1 (2%) N (%)"}, {"measurement": "serious TEAE: Pneumonia aspiration", "setting": "300 mg, through Week 28", "value": "1 (2%) N (%)"}, {"measurement": "serious TEAE: Pneumonia bacterial", "setting": "300 mg, through Week 28", "value": "0 N (%)"}, {"measurement": "serious TEAE: Pulmonary embolism", "setting": "300 mg, through Week 28", "value": "0 N (%)"}, {"measurement": "serious TEAE: Respiratory distress", "setting": "300 mg, through Week 28", "value": "0 N (%)"}, {"measurement": "serious TEAE: Respiratory failure", "setting": "300 mg, through Week 28", "value": "1 (2%) N (%)"}, {"measurement": "serious TEAE: Respiratory, Thoracic and Mediastinal Disorders", "setting": "300 mg, through Week 28", "value": "2 (5%) N (%)"}, {"measurement": "serious TEAE: Subdural haematoma", "setting": "300 mg, through Week 28", "value": "1 (2%) N (%)"}, {"measurement": "serious TEAE: Sudden death", "setting": "300 mg, through Week 28", "value": "0 N (%)"}, {"measurement": "serious TEAE: Viral infection", "setting": "300 mg, through Week 28", "value": "0 N (%)"}, {"measurement": "≧1 TEAE with an outcome of death", "setting": "300 mg, through Week 28", "value": "1 N (%) and 1 (2%) N (%)"}, {"measurement": "≧1 serious TEAE (including death)", "setting": "300 mg, through Week 28", "value": "5 N (%) and 5 (11%) N (%)"}, {"measurement": "≧1 serious treatment-related TEAE", "setting": "300 mg, through Week 28", "value": "1 (2%) N (%)"}, {"measurement": "≧1 severe TEAE", "setting": "300 mg, through Week 28", "value": "6 (14%) N (%) and 6 N (%)"}, {"measurement": "Number of TEAEs", "setting": "[1]", "value": 366}, {"measurement": "Number of serious TEAEs", "setting": "[1]", "value": 17}, {"measurement": "Number of serious treatment-related TEAEs", "setting": "[1]", "value": 2}, {"measurement": "Number of severe TEAEs", "setting": "[1]", "value": 23}, {"measurement": "Number of treatment-related TEAEs", "setting": "[1]", "value": 61}, {"measurement": "Subjects with a TEAE with action taken of study drug discontinued", "setting": "[1]", "value": "3 N (%) and 3 (7%) N (%)"}, {"measurement": "subjects with TEAEs with an outcome of death (b230 count)", "setting": "[1]", "value": 5, "unit": "subjects"}, {"measurement": "≧1 TEAE with an outcome of death", "setting": "[1]", "value": "4 N (%) and 4 (9%) N (%)"}, {"measurement": "≧1 serious TEAE (including death)", "setting": "[1]", "value": "11 N (%) and 11 (25%) N (%)"}, {"measurement": "≧1 serious treatment-related TEAE", "setting": "[1]", "value": "2 (5%) N (%)"}, {"measurement": "≧1 severe TEAE", "setting": "[1]", "value": "13 N (%) and 13 (30%) N (%)"}, {"measurement": "≧1 treatment-related TEAE", "setting": "[1]", "value": "18 (41%) N (%)"}, {"measurement": "safety and tolerability", "setting": "total daily doses of 50 mg and 300 mg, ALS subjects", "value": "safe and well tolerated"}]}]}
